Measurements from US6255497A, “Method for the inhibition of ALDH-I useful in the treatment of alcohol dependence or alcohol abuse” (priority 1998, dated 2001).
pKi: −log10 of the molar value. Values after ≈ are worked out from the molar mass of the structure shown.

Legend:
ALDH-II [1] = biological target: T1, ALDH-II (Homo sapiens, UniProt P00352); test: Competitive inhibition of ALDH-II with acetaldehyde as substrate; assay type: biochemical; parameters: A liver sample (50 g wet weight) with the usual Caucasian ALDH phenotype (both ALDH-I and ALDH-II present); from tissue; host or cells: human liver (autopsy), purified by CM-52, AMP-agarose and DEAE HPLC
T1 sequence (P00352 1-501): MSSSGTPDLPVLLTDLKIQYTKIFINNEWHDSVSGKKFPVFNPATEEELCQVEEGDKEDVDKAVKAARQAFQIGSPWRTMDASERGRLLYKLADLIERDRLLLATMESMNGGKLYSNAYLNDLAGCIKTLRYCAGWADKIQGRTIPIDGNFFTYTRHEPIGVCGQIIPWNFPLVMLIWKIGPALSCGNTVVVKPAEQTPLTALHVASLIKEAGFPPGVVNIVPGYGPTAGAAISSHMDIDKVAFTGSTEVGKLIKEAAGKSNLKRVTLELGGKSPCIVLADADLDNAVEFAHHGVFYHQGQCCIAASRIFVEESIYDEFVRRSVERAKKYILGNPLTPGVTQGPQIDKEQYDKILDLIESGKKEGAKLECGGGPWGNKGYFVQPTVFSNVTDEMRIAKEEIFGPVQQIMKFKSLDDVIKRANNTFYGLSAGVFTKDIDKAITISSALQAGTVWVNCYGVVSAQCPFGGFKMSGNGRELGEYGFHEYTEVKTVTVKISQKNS

ALDH-II [2] = biological target: T1, ALDH-II; test: Inhibition kinetics of ALDH-II, initial velocity method, formaldehyde as substrate
Experimental: The inhibition kinetics were studied by the initial velocity method (Dixon and Webb, 1979, Enzymes, 3rd ed., Longman, Great Britain). […] The initial reaction rates were measured in a pH 9.5 assay medium 0.1 11 in glycine-NaOH, 0. […] The enzyme reaction rates were followed by monitoring the production of NADH at 340 nm (ε-6.22 mM^-1 cm^-1) with a Varian Cary 219 spectrophotometer thermostated at 25° C. The kinetic data were analyzed by standard graphical methods.

golden hamsters = test: Dose effect on free choice ethanol intake in golden hamsters, i.p.; assay type: in vivo, golden hamster; conditions: i.p.
Description: It is common practice in quantitative drug studies with rodents to use intraperitoneal (i.p.) administration to deliver drug doses accurately (Goodman and Gilman, 1975, The Pharmacological Basis of Therapeutics, 5th ed., Macmillan, N.Y., p. 8). In particular, this method avoids variability introduced by technical difficulties of oral administration via feeding (full versus empty stomach, etc.), variations in drug transport in the gastrointestinal tract (variations in intestinal fauna and flora, individual variations in absorption rate expected of outbred animals, etc.) and other factors. […] As a control 1 ml of sterile saline was injected i.p. daily during the baseline period (typically 7-9 days) that establishes drinking preference without the drug. Saline injection i.p. had no effect on the drinking behavior of golden hamsters. Ethanol was provided as a 20% solution. Hamsters could be used more than once (but were not used more than three times) in a cycle of baseline saline injections followed by drug injections, each cycle with the drug at a different dose.
The response to daidzin treatment was computed as:
% Response=(Vo -Vd)×100/Vo

rats = conditions: subcutaneous in propylene glycol; cited from earlier work
[3] = high doses; cited from earlier work
ADH isozymes = test: Inhibition of ADH; assay type: biochemical, human
ALDH-I = biological target: T2, ALDH-I (Homo sapiens, UniProt P05091); test: Inhibition kinetics of ALDH-I, initial velocity method, formaldehyde as substrate; conditions: from Ki values of Table II
T2 sequence (P05091 18-517): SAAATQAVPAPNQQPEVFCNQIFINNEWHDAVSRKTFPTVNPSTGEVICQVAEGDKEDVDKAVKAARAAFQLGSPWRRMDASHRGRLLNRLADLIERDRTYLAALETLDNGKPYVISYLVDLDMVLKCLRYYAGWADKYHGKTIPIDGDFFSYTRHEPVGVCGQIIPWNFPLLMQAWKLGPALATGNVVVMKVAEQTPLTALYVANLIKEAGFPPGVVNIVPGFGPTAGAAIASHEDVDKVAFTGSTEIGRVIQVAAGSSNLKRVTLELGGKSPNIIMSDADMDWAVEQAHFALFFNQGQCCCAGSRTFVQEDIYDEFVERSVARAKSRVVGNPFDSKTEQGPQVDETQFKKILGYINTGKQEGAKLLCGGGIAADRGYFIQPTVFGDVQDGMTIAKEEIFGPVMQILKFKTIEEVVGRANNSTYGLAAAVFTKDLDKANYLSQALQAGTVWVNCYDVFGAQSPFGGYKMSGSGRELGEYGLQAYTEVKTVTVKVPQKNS
Experimental: The kinetic data were analyzed by standard graphical methods.

[4] = Plasma drug concentration versus time after a single 10 mg dose; assay type: in vivo; conditions: golden hamster
Description: Five hours later the plasma concentrations of both inhibitors were still above […], far above their competitive inhibition constants for ALDH-I.

mice = conditions: subcutaneous in propylene glycol; cited from earlier work

O=c1c(-c2ccc(O)cc2)coc2cc(O[C@@H]3O[C@H](CO)[C@@H](O)[C@H](O)[C@H]3O)ccc12 [Daidzin, 7-glucoside of daidzein]
pKi (ALDH-II [1]): 4.55 | pKi (ALDH-II [2]): 4.70 | suppression of alcohol intake at 5 mg/day (golden hamsters; 20% ethanol, 5 mg/day): 20% | suppression of alcohol intake at 10 mg/day (golden hamsters; 20% ethanol, 10 mg/day): 50% | suppression of alcohol intake at 30 mg/day (golden hamsters; 20% ethanol, 30 mg/day): 80% | EC50 or half-maximal response, suppression of alcohol intake (golden hamsters; golden hamsters): 10 mg/day | antifebrile (hypothermic) effect (rats): no antifebrile (hypothermic) effect | estrogenic activity [3]: estrogenic activity at high doses | solubility (physchem; 10% aqueous polyvinylpyrrolidone 40, organic solvent or mixture): ~2000 µM (≈ 833 µg/mL) | solubility (physchem; 20% peg 400 in water, organic solvent or mixture): 4500 µM (≈ 1870 µg/mL) | solubility (physchem; 20% peg/water, beta-cyclodextrin, organic solvent or mixture): 9400 µM (≈ 3910 µg/mL) | solubility (physchem; saturated digitonin solution): ~2000 µM (≈ 833 µg/mL) | solubility (physchem; water): 200 µM (≈ 83.3 µg/mL) | ADH inhibition (ADH isozymes): inhibits the second but not the first step in human ethanol metabolism | more effective inhibition of human ALDH-I than of human ALDH-II (ALDH-I): 500 fold | time to maximal plasma concentration after injection ([4]; i.p.): within about an hour after injection | Cmax ([4]; plasma, ip, read-out: maximal plasma concentration): 6 µM | spasmolytic effect (mice): no spasmolytic effect
